One compound from US20060083759A1, “Stabilization of the profile of release of active substances from a formulation” (priority 2002, published 2006) can be followed below.

A short description of the series: release (dissolution) of clarithromycin from tablets at aging / stability testing. In kind it is physicochemical. The following applies: for change of tablet dissolution at aging: clarithromycin particle size over 200 μm. From the text: By comparing the profiles it has been established that the release rate of a high dosage active substance being poorly soluble in an aqueous medium from a formulation changes with aging, which is even more expressed in the conditions of an accelerated stability assay.
Thus recrystallization is kept at the lowest possible level. In the case of micronizing clarithromycin with large particles also the particle porosity and brittleness are reduced. Micronized clarithromycin can either be already the product of a basic synthesis process or it may be micronized later from clarithromycin with large particles.

Turning to `CC[C@H]1OC(=O)[C@H](C)[C@@H](O[C@H]2C[C@@](C)(OC)[C@@H](O)[C@H](C)O2)[C@H](C)[C@@H](O[C@@H]2O[C@H](C)C[C@H](N(C)C)[C@H]2O)[C@](C)(OC)C[C@@H](C)C(=O)[C@H](C)[C@@H](O)[C@]1(C)O` [clarithromycin], the “changes in the release rate” value (particle size d(0.9) up to about 30 μm at the most, humidified with a minimum amount of water) is reported as “minimized”. Besides, the “change of tablet dissolution at aging” value is “noticeably decreases” (tablets made by aqueous granulation) and “noticeably increases” (tablets made by direct tabletting).
